Test: xn = mol fraction of the nth substance listed

CCCCCCCCCCCCCCCC[n+]1ccccc1.[Cl-] + OCC(O)CO + O
electrical conductivity [S/m], 100 kPa
Conditions	293.15 K	298.15 K	303.15 K	308.15 K
x1 = 3.75e-06, x2 = 0.01019	0.0022	0.0024	0.0025	0.0029
x1 = 3.92e-06, x2 = 0.02128	0.0022	0.0023	0.0024	0.0032
x1 = 4.1e-06, x2 = 0.03338	0.0019	0.0022	0.0026	0.0032
x1 = 4.29e-06, x2 = 0.04664	0.0019	0.0022	–	0.0032
x1 = 7.51e-06, x2 = 0.01019	0.004	0.0042	0.0046	0.0052
x1 = 7.84e-06, x2 = 0.02128	0.0035	0.0039	0.0043	0.0054
x1 = 8.2e-06, x2 = 0.03338	0.0031	0.0037	0.0043	0.0049
x1 = 8.59e-06, x2 = 0.04664	0.003	0.0036	0.0044	0.0048
x1 = 1.126e-05, x2 = 0.01019	0.0058	–	0.0065	0.0076
x1 = 1.176e-05, x2 = 0.02128	–	0.0054	0.0064	0.0077
x1 = 1.23e-05, x2 = 0.03338	0.0043	0.0052	0.0059	0.0068
x1 = 1.288e-05, x2 = 0.04664	0.004	0.005	0.0058	0.0065
x1 = 1.502e-05, x2 = 0.01019	0.0076	0.0076	0.0085	–
x1 = 1.568e-05, x2 = 0.02128	0.0063	–	0.0084	–
x1 = 1.639e-05, x2 = 0.03338	0.0056	0.0066	0.0077	0.0088
x1 = 1.718e-05, x2 = 0.04664	0.0052	0.0063	0.0072	0.0083
x1 = 1.877e-05, x2 = 0.01019	0.0087	0.0092	–	–
x1 = 1.96e-05, x2 = 0.02128	0.0076	0.0087	–	–
x1 = 2.049e-05, x2 = 0.03338	0.0069	0.0081	0.0093	–
x1 = 2.147e-05, x2 = 0.04664	0.0063	0.0078	0.0086	–
x1 = 2.253e-05, x2 = 0.01019	0.0094	–	–	–
x1 = 2.351e-05, x2 = 0.02128	0.0083	0.0096	–	–
x1 = 2.459e-05, x2 = 0.03338	0.0079	0.0089	–	–
x1 = 2.577e-05, x2 = 0.04664	0.0073	0.0089	0.0097	–
x1 = 2.743e-05, x2 = 0.02128	0.0089	–	–	–
x1 = 2.869e-05, x2 = 0.03338	0.0086	0.0095	–	–
x1 = 3.006e-05, x2 = 0.04664	0.0079	0.0095	–	–
x1 = 3.135e-05, x2 = 0.02128	0.0095	–	–	–
x1 = 3.279e-05, x2 = 0.03338	0.0092	–	–	–
x1 = 3.436e-05, x2 = 0.04664	0.0084	–	–	–
x1 = 3.688e-05, x2 = 0.03338	0.0098	–	–	–
x1 = 3.865e-05, x2 = 0.04664	0.0089	–	–	–
x1 = 4.295e-05, x2 = 0.04664	0.0094	–	–	–

C[P+](c1ccccc1)(c1ccccc1)c1ccccc1.[Br-] + OCC(O)CO + OCCO
298.2 K, 101 kPa
Conditions	viscosity [mPa·s]
x1 = 0.2, x2 = 0	121
x1 = 0.2, x2 = 0.4	455
x1 = 0.2, x2 = 0.8	1894

C[N+](C)(C)CCO.O=S(=O)([N-]S(=O)(=O)C(F)(F)F)C(F)(F)F + OCCCCCO
101 kPa
Conditions	viscosity [mPa·s]
318.15 K, x2 = 0.2149	37.3
323.15 K, x2 = 0	39.3
323.15 K, x2 = 0.2149	31.2
328.15 K, x2 = 0.2149	26.3
333.15 K, x2 = 0.2149	22.5
338.15 K, x2 = 0.4145	16.11
343.15 K, x2 = 0.6847	12.37

C[N+](C)(C)CCO.O=S(=O)([N-]S(=O)(=O)C(F)(F)F)C(F)(F)F + OCCCO
101 kPa
Conditions	viscosity [mPa·s]
313.15 K, x2 = 0.1272	47.2
313.15 K, x2 = 0.4106	30
313.15 K, x2 = 0.5712	24.9
318.15 K, x2 = 0	46.8
328.15 K, x2 = 0	33.4
333.15 K, x2 = 0.1272	23.9
333.15 K, x2 = 0.2297	20.5
333.15 K, x2 = 0.6946	11.27
338.15 K, x2 = 0.2297	17.8
338.15 K, x2 = 0.6946	9.76
338.15 K, x2 = 0.9474	8.48
343.15 K, x2 = 0.2297	15.62
348.15 K, x2 = 0	19.1
348.15 K, x2 = 0.5712	8.63
353.15 K, x2 = 0.8367	5.98

CCCC[P+](c1ccccc1)(c1ccccc1)c1ccccc1.[Br-] + OCCO
100 kPa, x2 = 0.9756
Conditions	viscosity [mPa·s]
303.15 K	21.6
313.15 K	18.5
323.15 K	15.5
333.15 K	14
343.15 K	12
353.15 K	10.5

C[N+](C)(C)CCO.O=S(=O)([N-]S(=O)(=O)C(F)(F)F)C(F)(F)F + OCCO
100 kPa, x1 = 0.14
Conditions	electrical conductivity [S/m]	viscosity [mPa·s]
303 K	0.381	17.9
323 K	0.73	8.85

C[P+](c1ccccc1)(c1ccccc1)c1ccccc1.[Br-] + OCCO
Conditions	viscosity [mPa·s]
298.15 K, 100 kPa, x1 = 0.1	35
298.2 K, 101 kPa, x1 = 0.2	121
303.15 K, 100 kPa, x1 = 0.33	116.5
303.15 K, 100 kPa, x2 = 0.8333	56.5
303.15 K, 100 kPa, x2 = 0.9091	30.5
303.15 K, 100 kPa, x2 = 0.9756	17.6
313.15 K, 100 kPa, x1 = 0.1	18.24
313.15 K, 100 kPa, x1 = 0.33	65.5
313.15 K, 100 kPa, x2 = 0.9756	13
323.15 K, 100 kPa, x2 = 0.9756	9.5
323.15 K, 101 kPa, x1 = 0.25	31.72
333.15 K, 100 kPa, x2 = 0.9756	7.5
343.15 K, 100 kPa, x2 = 0.9756	6
353.15 K, 100 kPa, x2 = 0.9756	5.1

O=S=O + OCCO + C[P+](c1ccccc1)(c1ccccc1)c1ccccc1.[Br-]
100 kPa
Conditions	viscosity [mPa·s]
303.15 K, x1 = 0.02458, x2 = 0.9516	18.4
313.15 K, x1 = 0.01623, x2 = 0.9598	14
323.15 K, x1 = 0.01303, x2 = 0.9629	10.1
333.15 K, x1 = 0.01147, x2 = 0.9644	7.5
343.15 K, x1 = 0.009705, x2 = 0.9661	6
